The values below come from patent publication US20250248944A1, “SOFTGEL CAPSULES HAVING A FILL COMPOSITION COMPRISING APPLE CIDER VINEGAR” (CAPTEK SOFTGEL INTERNATIONAL, INC., priority 2024, published 2025).

Data set [1] in a line: Compatibility of acetic acid sources with the gelatin and plasticizer matrix. Format: physicochemical. The settings on record: acetic acid source tested individually. As for the experimental part: Various sources of acetic acid were tested in the laboratory to determine their compatibility with the gelatin and plasticizer matrix.
For data set [2] the following is noted: in softgel liquid fill materials. An excerpt:
The Bragg brand of apple cider vinegar hardshell capsules include sodium diacetate.

On to `CC(=O)[O-].CC(=O)[O-].[Ca+2]` [Calcium acetate], for which the “compatibility with the gelatin and plasticizer matrix (reaction observed)” value (“compatibility” below) in data set [1] was “partially gelled up and liquified”.
Consider `CC(=O)O.CC(=O)[O-].[Na+]` [Sodium diacetate], for which the “compatibility” value in data set [1] was “corroding a hole in the gelatin and causing leakage of the fill material”. In data set [2], the “effect on softgel shell” value was “causes holes to form in the softgel shell”.
For the compound `CC(=O)[O-].CC(=O)[O-].[Zn+2]` [Zinc acetate], the “compatibility” value in data set [1] is recorded as “least reaction”.
For `CC(=O)O.NCCCC[C@H](N)C(=O)O` [Lysine acetate powder, Lysine acetate], in data set [1], the “compatibility” value is “completely liquefied”.
